# According to PMC5424110, “Preclinical anti-arthritic study and pharmacokinetic properties of a potent histone deacetylase inhibitor MPT0G009” (Cell Death & Disease, 2014):
# Entries after “also recorded” stand apart in the source; their conditions may differ.
# Key:
# [1] = system: histone H3 acetylation and HDAC3 in RA-FLS; test: Western blot of acetyl histone H3 and HDAC isoforms, RA-FLS; format: cell-based, human
# Method: Then, cells were harvested and cell lysates were prepared for western blot analysis of the indicated proteins. (c) RA-FLSs were incubated for 1 h with or without the proteasome inhibitor, MG132 (1 μM). […] Results shown are representative of three independent experiments.
# RAW264.7 cells = test: Inflammatory mediator production by LPS-stimulated RAW264.7 cells; format: cell-based, mouse; details: RAW264.7, LPS 25 ng/ml 24 h; MPT0G009 0.1, 1 or 10 μM; SAHA 0.3, 3 or 30 μM
# Method: (a) Structure of MPT0G009.
# These supernatants were then assayed for prostaglandin E2 (PGE2), NO and IL-6.
# recombinant HDAC2 = target: T1, recombinant HDAC2 (Homo sapiens, UniProt Q92769); test: Fluorogenic assay kit, recombinant HDAC2 enzyme activity; format: biochemical; details: mean±S.E.M., three replicate experiments; read-out: IC50 (nM) of HDAC isoforms enzyme, HDAC2
# T1 construct: purchased BPS Bioscience Corp. (San Diego, CA, USA)
# Text: (§1) Using kits that contained different recombinant HDAC isoforms, we evaluated the ability of MPT0G009 to inhibit HDAC-mediated deacetylation of lysine residues on the substrates that were provided. […] Fluorogenic HDAC assay kits were used to assess the ability of HDAC inhibitors to inhibit deacetylation of lysine residues on the substrate by recombinant HDAC1, 2, 3, 4, 6 or 8 according to the manufacturer's instructions.
# CD-1 mice = test: Determination of the MTD in CD-1 mice; format: in vivo; details: for Lethality (%): qd × 7; for Change of body weight (%) Day 7 / Change of body weight (%) Day 14 / Change of body weight (%) Day 21: qd × 7, mean±S.E.M.
# Method: The MTD was determined using CD-1 mice at 8–10 weeks of age by dose ranging from 250 to 1000 mg/kg orally once a day for 1 week and then monitored for another 2 weeks. Each dose was tested on six mice in individual independent experiments. MTD was defined as the highest dose that could be given resulting in no drug-related moribund state or death, while temporary body weight loss was within 20%.
# rat AIA model = test: In vivo adjuvant-induced arthritis (AIA) model
# Method: Next, we evaluated the in vivo anti-arthritic effects of MPT0G009 in a rat AIA model. […] The inhibition of synoviocytes proliferation and inflammation by MPT0G009 treatment was also observed (Supplementary Figure 1).
# Figure 5 MPT0G009 inhibits the development of arthritis in an AIA model. […] Subsequently, swelling of both hind paws was photographed. (b) Hind paw volumes in the indicated group of rats were measured using a digital plethysmometer on the indicated day after AIA induction. (c) Arthritis scores on day 21. (d) Serum levels of interleukin (IL)-1β (left panel) and IL-6 (right panel) on day 21 as measured by enzyme-linked immunosorbent assay (ELISA). (e) Top five rows: photomicrographs of ankle joint sections from the different groups stained with hematoxylin and eosin, safranin O, immunohistochemically stained with an anti-acetyl H3 antibody or TRAP stain. Arrows indicate osteoblasts (OB); arrowheads indicate osteoclasts (OC). Bottom panels: micro-CT results (arrows indicate bone erosion). (f) The BMD (in mg/mm^3) and the BMC (in mg) values for the bone tissue of the tarsus were analyzed using CT Analysis Software.
# Five-week-old male Lewis rats were obtained from the National Laboratory Animal Center (Taipei, Taiwan). Complete Freund's adjuvant (CFA) was prepared by suspending heat-killed Mycobacterium butyricum (Difco, Sparks, MD, USA) in mineral oil at 3 mg/ml. CFA-induced arthritis was induced by intradermal injection of 100 μl of the CFA emulsion into the base of the right hind paw on day 0. […] On days 0, 2, 6, 9, 13, 17 and 21, the animals were weighed and both hind paw volumes measured using a digital plethysmometer (Diagnostic & Research Instruments Co. Ltd, Taipei, Taiwan). On day 21, micro-CT of the paws was performed by the Core Facilities Center of the National Research Program for Biopharmaceuticals using an in vivo micro-CT scanner (Skyscan 1176, Bruker Corp., Kontich, Belgium) at 18 μm resolution and 180° scanning with a rotation step of 0.8° per image, 300 ms integration time, 70 keV photon energy and 350 μA current. The reconstructed volumes from micro-CT scans were analyzed by CT Analysis Software (CTAn, Bruker Corp.). Quantification of volumetric BMD and bone volume (BV) was performed in a defined bone area ranging 12 mm from tarsals to the end of the calcaneus. The BMC was described by the product of BV and BMD. On day 21, the rats were killed and specimens from the phalanges and ankle joints stained with hematoxylin–eosin or safranin O for histopathological assessment by the National Laboratory Animal Center. Intensity of arthritis was scored as described previously from 0 to 4.[19] All four legs were scored, so the highest possible arthritic score was 16.
# p21 in RA-FLS = test: p21 expression in RA-FLS by flow cytometry
# Method: After three washes with FACS washing buffer, the fluorescence of the cells was analyzed on a FACScan flow cytometer (BD Biosciences). […] They were then incubated for 30 min at room temperature with 0.2 ml of DNA extraction buffer (0.2 M Na2HPO4 and 0.1 M citric acid buffer, pH 7.8), resuspended in 1 ml of propidium iodide staining buffer (0.1% Triton X-100, 100 μg/ml of RNase A and 80 μg/ml of propidium iodide in PBS), incubated at 37 °C for 30 min in the dark, sorted by FACScan, and analyzed using CellQuest software (BD Biosciences).
# recombinant HDAC8 = target: T2, recombinant HDAC8 (Homo sapiens, UniProt Q9BY41); test: Fluorogenic assay kit, recombinant HDAC8 enzyme activity; format: biochemical; details: mean±S.E.M., three replicate experiments; read-out: IC50 (nM) of HDAC isoforms enzyme, DHAC8
# T2 construct: purchased BPS Bioscience Corp. (San Diego, CA, USA)
# Text: as §1
# [2] = day 21, ELISA, MPT0G009 25 mg/kg, SAHA 200 mg/kg, indomethacin 1 mg/kg
# [3] = oral daily days 2 to 21, MPT0G009 25 mg/kg, SAHA 200 mg/kg, indomethacin 1 mg/kg, vs vehicle
# T1 sequence (Q92769 whole entry, canonical isoform): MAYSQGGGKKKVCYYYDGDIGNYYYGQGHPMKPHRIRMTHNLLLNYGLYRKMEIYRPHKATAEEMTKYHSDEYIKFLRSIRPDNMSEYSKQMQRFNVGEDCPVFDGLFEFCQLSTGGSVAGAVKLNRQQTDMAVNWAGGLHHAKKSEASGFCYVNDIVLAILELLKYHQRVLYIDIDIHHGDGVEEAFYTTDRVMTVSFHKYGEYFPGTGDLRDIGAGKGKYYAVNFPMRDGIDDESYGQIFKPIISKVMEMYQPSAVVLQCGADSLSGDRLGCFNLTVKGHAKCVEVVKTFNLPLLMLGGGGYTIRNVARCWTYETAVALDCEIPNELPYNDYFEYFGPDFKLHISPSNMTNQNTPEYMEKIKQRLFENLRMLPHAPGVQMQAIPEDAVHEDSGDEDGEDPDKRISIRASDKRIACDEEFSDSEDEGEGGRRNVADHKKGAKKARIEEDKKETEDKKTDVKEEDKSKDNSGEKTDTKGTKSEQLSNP
# T2 sequence (Q9BY41 whole entry, canonical isoform): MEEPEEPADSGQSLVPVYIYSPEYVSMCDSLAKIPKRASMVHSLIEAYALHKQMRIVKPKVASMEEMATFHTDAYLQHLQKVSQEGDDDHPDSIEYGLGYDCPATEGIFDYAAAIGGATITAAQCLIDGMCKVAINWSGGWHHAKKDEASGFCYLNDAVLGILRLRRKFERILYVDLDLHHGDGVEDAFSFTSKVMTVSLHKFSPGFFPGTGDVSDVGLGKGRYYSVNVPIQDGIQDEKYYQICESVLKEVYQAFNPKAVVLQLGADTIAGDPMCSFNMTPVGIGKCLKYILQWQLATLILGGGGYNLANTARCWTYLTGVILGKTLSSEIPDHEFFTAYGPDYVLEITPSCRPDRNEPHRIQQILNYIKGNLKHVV
compound,measurement,setting,value
"COc1ccc(S(=O)(=O)N2CCc3cc(C=CC(=O)NO)ccc32)cc1 [MPT0G009, 3-[1-(4-methoxybenzenesulfonyl)-2,3-dihydro-1H-indol-5-yl]-N-hydroxyacrylamide]",acetylation of histone H3 (Acetyl-H3),"[1]; 1 μM MPT0G009 or 30 μM SAHA, 6, 12 or 24 h, starting at 12 h",significant hyperacetylation
same,levels of HDAC3,"[1]; 12 or 24 h, 1 μM MPT0G009 or 30 μM SAHA",decreased levels of HDAC3
same,NO production,RAW264.7 cells,inhibited
same,PGE2 production,RAW264.7 cells,inhibited
same,IC50,recombinant HDAC2,5.16 ± 0.76 nM
same,Lethality (%),CD-1 mice; 250 mg/kg p.o.,0%
same,Change of body weight (%) Day 7,CD-1 mice; 250 mg/kg p.o.,+8.7±0.5%
same,Change of body weight (%) Day 14,CD-1 mice; 250 mg/kg p.o.,+17.0±0.4%
same,Change of body weight (%) Day 21,CD-1 mice; 250 mg/kg p.o.,+22.6±0.6%
same,Lethality (%),CD-1 mice; 500 mg/kg p.o.,0%
same,Change of body weight (%) Day 7,CD-1 mice; 500 mg/kg p.o.,+1.6±0.3%
same,Change of body weight (%) Day 14,CD-1 mice; 500 mg/kg p.o.,+16.5±0.6%
same,Change of body weight (%) Day 21,CD-1 mice; 500 mg/kg p.o.,+24.0±0.9%
same,Lethality (%),CD-1 mice; 1000 mg/kg p.o.,0%
same,Change of body weight (%) Day 7,CD-1 mice; 1000 mg/kg p.o.,+4.4±0.6%
same,Change of body weight (%) Day 14,CD-1 mice; 1000 mg/kg p.o.,+12.0±0.7%
same,Change of body weight (%) Day 21,CD-1 mice; 1000 mg/kg p.o.,+15.3±0.8%
same,adverse effects / tolerability,"CD-1 mice; up to 1000 mg/kg/day, daily × 7, within 3 weeks",No significant adverse effects; also recorded: well tolerated and safe
same,cartilage degradation (safranin O staining of ankle joints),rat AIA model; 25 mg/kg,markedly reduced
same,formation of osteoclasts (TRAP stain),rat AIA model; 25 mg/kg,significantly decreased
same,"leukocyte infiltration, synovitis (hematoxylin and eosin staining)",rat AIA model; 25 mg/kg,significantly reduced
same,levels of acetyl-histone H3 (immunohistochemical staining),rat AIA model; 25 mg/kg,increased levels
same,bone destruction (micro-CT),"rat AIA model; 25 mg/kg, day 21",ameliorated
same,bone mineral content (BMC),"rat AIA model; 25 mg/kg, tarsus, micro-CT",prevented the decrease
same,bone mineral density (BMD),"rat AIA model; 25 mg/kg, tarsus, micro-CT",prevented the decrease
same,serum levels of IL-1β,rat AIA model; [2],significant decreases
same,serum levels of IL-6,rat AIA model; [2],significant decreases
same,arthritis scores,"rat AIA model; day 21, MPT0G009 25 mg/kg, SAHA 200 mg/kg, indomethacin 1 mg/kg, vs vehicle",significant reductions
same,paw swelling,rat AIA model; [3],significant reductions
same,paw volume,rat AIA model; [3],significant reductions
same,expression of p21,"p21 in RA-FLS; RA-FLS 24 h, 1 μM MPT0G009 or 3 μM SAHA, flow cytometry or western blot",significantly increased
same,p21 (flow cytometry),"p21 in RA-FLS; RA-FLS, 1 μM, 24 h, Figure 1h",94.71%
same,IC50,recombinant HDAC8,22.5 ± 2.16 nM
